Consider 25 compounds from US11707539B2, “FAP-targeted radiopharmaceuticals and imaging agents, and uses related thereto” (Trustees of Tufts College, priority 2020, dated 2023).

Holding throughout (assay type): biochemical
The target in assay [1] is recombinant human fibroblast activation protein (FAP) (Homo sapiens (Human), UniProt Q12884). As to the kind of experiment: In vitro IC50 assay, fibroblast activation protein (Example 15). The procedure:
(§1) The purpose of this assay is to determine the IC50 of various inhibitors against recombinant human dipeptidyl peptidase IV (DPPIV), fibroblast activation protein (FAP) or prolyl oligopeptidase (PREP).
(§2) The assays are conducted in the following steps: • 1 Dissolve the compound in DMSO to a final concentration of 100 mM. From this, prepare a 1 mM stock at pH 7.5 in 50 mM Tris, 140 mM NaCl Buffer (FAP)/pH 7.5 in 25 mM Tris, 250 mM NaCl Buffer/pH 8.0 140 mM NaCl Buffer (PREP). • 2. Serial dilute (1:10) the 1 mM compound stocks prepared previously into the appropriate assay buffer (FAP: 50 mM Tris, 140 mM NaCl, pH 7.5/PREP: 25 mM Tris, 0.25 M NaCl, pH 7.5/DPPIV: 25 mM Tris, pH 8.0) to one row of a 96-well plate. • 3. […] Dilute the enzymes into their appropriate assay buffers. The final enzyme concentrations should be 0.1, 1.2, and 0.6 nM for DPPIV, FAP and PREP respectively. Add 180 μL to each well needed in columns 2-10. Column 1 (A,B,C) should be prepared with 200 ul of appropriate assay buffer as control. Column 1 (D,E,F,G,H) should be prepared with 20 ul of appropriate assay buffer and 180 ul enzyme as no inhibitor control. • 5. Add 20 μL of the compound of interest from the dilution plate prepared in step 2 to columns 2-10 of the assay plate where appropriate. Each sample should be tested in triplicate. Allow this to incubate for 10 minutes at room temperature, shaking the plate for the first two minutes. • 6. Add 10 μL of 20× substrate prepared in step 3 to each well and allow this to incubate for 15 minutes at room temperature, shaking the plate for the first two minutes. • 7. Read the fluorescence at λex: 380, λem: 460. (DPcore=[dAla|dSerGly]-[boroPro|Pro-nitrile], XXaa=alpha-amino acid)

Assay [2] addresses recombinant human dipeptidyl peptidase IV (DPPIV) (Homo sapiens (Human), UniProt P27487). The experiment in a line: In vitro IC50 assay, dipeptidyl peptidase IV (Example 15). Particulars: Gly-Pro-AMC, room temperature. The procedure:
as §1, §2

For assay [3], the target named is recombinant human prolyl oligopeptidase (PREP) (Homo sapiens (Human), UniProt P48147). As to the kind of experiment: In vitro IC50 assay, prolyl oligopeptidase (Example 15). The procedure:
as §1, §2

The mark [4] stands for this setting: Z-Gly-Pro-AMC, room temperature, read-out: FAP IC50.
Setting [5] is: Z-Gly-Pro-AMC, room temperature, read-out: PREP IC50.

pIC50: −log10 of the molar value. Values joined by “and” are separate entries in the source; they are usually repeats but may differ in a detail not shown here. Equal values may be shown once. Read-outs that look alike come from different tables or passages of the source. Where a SMILES comes first, the peptide text is derived from it. Some results are limits rather than exact numbers.

recombinant human prolyl oligopeptidase (PREP), sequence (P48147 whole entry): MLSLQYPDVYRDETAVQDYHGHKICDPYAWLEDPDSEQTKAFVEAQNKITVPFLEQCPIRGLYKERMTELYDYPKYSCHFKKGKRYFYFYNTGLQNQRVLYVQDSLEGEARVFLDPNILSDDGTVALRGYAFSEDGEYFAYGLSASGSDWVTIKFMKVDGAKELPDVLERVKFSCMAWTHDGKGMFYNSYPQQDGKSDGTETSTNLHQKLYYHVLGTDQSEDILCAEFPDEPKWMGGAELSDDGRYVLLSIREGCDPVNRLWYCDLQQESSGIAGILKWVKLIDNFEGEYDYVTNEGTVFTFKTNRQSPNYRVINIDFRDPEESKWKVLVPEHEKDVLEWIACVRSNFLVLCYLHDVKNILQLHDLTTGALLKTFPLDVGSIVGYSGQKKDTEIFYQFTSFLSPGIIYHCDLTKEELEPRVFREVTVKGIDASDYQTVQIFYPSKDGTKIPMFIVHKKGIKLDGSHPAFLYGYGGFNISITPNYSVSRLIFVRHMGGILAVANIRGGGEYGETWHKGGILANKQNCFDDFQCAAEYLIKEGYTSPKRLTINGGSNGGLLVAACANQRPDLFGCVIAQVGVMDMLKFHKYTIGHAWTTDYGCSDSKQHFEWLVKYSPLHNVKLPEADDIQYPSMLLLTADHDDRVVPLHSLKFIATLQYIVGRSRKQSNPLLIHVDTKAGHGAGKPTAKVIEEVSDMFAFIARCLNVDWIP
recombinant human dipeptidyl peptidase IV (DPPIV), sequence (P27487 whole entry): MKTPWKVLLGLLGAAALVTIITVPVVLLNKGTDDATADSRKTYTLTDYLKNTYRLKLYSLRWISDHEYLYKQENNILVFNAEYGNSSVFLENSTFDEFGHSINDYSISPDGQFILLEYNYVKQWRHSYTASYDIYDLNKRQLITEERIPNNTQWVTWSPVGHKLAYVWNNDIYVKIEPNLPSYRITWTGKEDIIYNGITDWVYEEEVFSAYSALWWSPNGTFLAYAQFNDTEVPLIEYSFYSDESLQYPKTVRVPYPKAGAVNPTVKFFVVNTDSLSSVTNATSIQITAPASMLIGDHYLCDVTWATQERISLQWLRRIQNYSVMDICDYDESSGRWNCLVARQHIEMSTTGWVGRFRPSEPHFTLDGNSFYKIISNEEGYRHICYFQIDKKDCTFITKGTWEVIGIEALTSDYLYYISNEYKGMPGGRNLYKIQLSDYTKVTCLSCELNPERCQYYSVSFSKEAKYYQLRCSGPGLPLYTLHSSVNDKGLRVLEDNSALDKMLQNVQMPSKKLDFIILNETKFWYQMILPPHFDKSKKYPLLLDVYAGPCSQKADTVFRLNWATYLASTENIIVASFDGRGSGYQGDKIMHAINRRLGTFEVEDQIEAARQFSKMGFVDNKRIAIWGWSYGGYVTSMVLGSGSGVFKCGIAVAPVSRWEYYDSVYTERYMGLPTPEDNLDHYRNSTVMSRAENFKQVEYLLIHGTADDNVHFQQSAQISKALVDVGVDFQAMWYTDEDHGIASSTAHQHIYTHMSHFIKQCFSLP
recombinant human fibroblast activation protein (FAP), sequence (Q12884 whole entry): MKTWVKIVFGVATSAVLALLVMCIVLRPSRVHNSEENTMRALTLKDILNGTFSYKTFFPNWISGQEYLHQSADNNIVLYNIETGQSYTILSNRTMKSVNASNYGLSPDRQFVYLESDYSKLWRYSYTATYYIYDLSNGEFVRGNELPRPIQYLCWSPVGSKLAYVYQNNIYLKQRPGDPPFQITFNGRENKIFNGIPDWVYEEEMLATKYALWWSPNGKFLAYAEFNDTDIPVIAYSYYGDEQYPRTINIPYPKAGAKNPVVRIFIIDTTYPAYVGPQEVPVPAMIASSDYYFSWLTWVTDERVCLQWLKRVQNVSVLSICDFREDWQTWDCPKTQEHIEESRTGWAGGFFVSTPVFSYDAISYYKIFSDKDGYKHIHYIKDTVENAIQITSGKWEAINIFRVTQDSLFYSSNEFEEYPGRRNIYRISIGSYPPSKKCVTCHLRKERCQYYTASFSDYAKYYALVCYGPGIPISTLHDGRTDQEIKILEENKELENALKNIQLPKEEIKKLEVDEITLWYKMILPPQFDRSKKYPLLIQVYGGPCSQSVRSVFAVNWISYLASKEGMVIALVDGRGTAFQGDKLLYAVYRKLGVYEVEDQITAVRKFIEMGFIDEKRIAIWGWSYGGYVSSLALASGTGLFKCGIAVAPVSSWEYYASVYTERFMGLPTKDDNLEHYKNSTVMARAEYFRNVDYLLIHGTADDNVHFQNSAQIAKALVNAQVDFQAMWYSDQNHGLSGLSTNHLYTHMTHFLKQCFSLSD

A word on the pIC50: it is the IC50 on a negative log10 scale, so that one unit is a factor of ten. As for `CC(C)[C@H](NC(=O)CNC(=O)CNC(=O)CNC(=O)CCC(C(=O)O)N1CCN(CC(=O)O)CCN(CC(=O)O)CCN(CC(=O)O)CC1)C(=O)N[C@H](C)C(=O)N1CCC[C@H]1B(O)O` (mixture of isomers) [Compound 6808, (R/S)-DOTAGA-(Gly)3-Val-Dala-boroPro], the negative logarithm of the IC50 (pIC50) in assay [1] is 7.94.
In the case of `CC(C)[C@H](NC(=O)CN1CCN2CCN(CC(=O)O)CCN(CC1)CC(=O)[O][Cu][O]C(=O)C2)C(=O)N[C@H](C)C(=O)N1CCC[C@H]1B(O)O` (stereo in doubt) [Compound 6508CU, DOTA[(Cu(II)]-Val-D-Ala-boroPro], the negative-log IC50 (pIC50) in assay [1] (setting [4]) is 7.58.
For `C[C@@H](NC(=O)c1ccc(NN)nc1)C(=O)N1CCC[C@H]1B(O)O` [Compound 3860, N-(6-hydrazinylnicotincarbonyl)-D-AlaboroPro], in assay [2], the pIC50 is below 4.00.
On to `C[C@@H](NC(=O)CN1CCN(CC(=O)O)CCN(CC(=O)O)CCN(CC(=O)O)CC1)C(=O)N1CCC[C@H]1B(O)O` [Compound 4535, DOTA-D-ala-boroPro], for which the pIC50 in assay [1] was 7.48; in assay [3], 5.00; in assay [3] (setting [5]), below 5.00.
Regarding `C[C@@H](NC(=O)CN1CCN2CCN3CCN(CC1)CC(=O)[O][Gd]([O]C(=O)C2)[O]C(=O)C3)C(=O)N1CCC[C@H]1B(O)O` [Compound 4535GD, DOTA[(Gd(III)]-D-alaboroPro], the pIC50 in assay [1] (setting [4]) is 6.12; in assay [3] (setting [5]) it was below 5.00.
Regarding `C[C@@H](NC(=O)c1ccc(NNC(=O)CN2CCN3CCN4CCN(CC2)CC(=O)[O][Gd]([O]C(=O)C3)[O]C(=O)C4)nc1)C(=O)N1CCC[C@H]1B(O)O` [Compound 4536GD], the negative-log IC50 (pIC50) in assay [2] and in assay [3] (setting [5]) was below 4.00 each time.
In the case of `C[C@@H](NC(=O)c1ccc(NNC(=O)CN2CCN(CC(=O)O)CCN(CC(=O)O)CCN(CC(=O)O)CC2)nc1)C(=O)N1CCC[C@H]1B(O)O` [Compound 4536], the negative-log IC50 (pIC50) in assay [3] (setting [5]) is 6.12.
Consider `C[C@@H](NC(=O)c1ccc(NNC(=O)CCCCCC2=C(/C=C/C3=C(Oc4ccc(S(=O)(=O)O)cc4)C(=C/C=C4/N(CCCCS(=O)(=O)O)c5ccc(S(=O)(=O)O)cc5C4(C)C)/CCC3)C(C)(C)c3cc(S(=O)(=O)O)ccc32)nc1)C(=O)N1CCC[C@H]1B(O)O` [Compound 4613B, IRDye800CW-3860], for which the pIC50 in assay [2] is below 4.00; in assay [1] (setting [4]) it was 8.06 and 8.00; in assay [3] (setting [5]), 6.41.
Consider `C[C@@H](NC(=O)c1ccc(NNC(=O)CCCCCC2=C(/C=C/C3=C(Oc4ccc(S(=O)(=O)O)cc4)C(=C/C=C4/N(CCCCS(=O)(=O)O)c5ccc(S(=O)(=O)O)cc5C4(C)C)/CCC3)C(C)(C)c3cc(S(=O)(=O)O)ccc32)cc1)C(=O)N1CCC[C@H]1B(O)O` [Compound 4613C, IRDye 800CW-3860B], for which the pIC50 in assay [1] (setting [4]) was 8.77; in assay [3] (setting [5]), 6.21.
On to `C[C@@H](NC(=O)c1ccc(NNC(=O)CN2CCN3CCN4CCN(CC2)CC(=O)[O][Ga]([O]C(=O)C3)[O]C(=O)C4)cc1)C(=O)N1CCC[C@H]1B(O)O` [Compound 5183GA], for which, in assay [1] (setting [4]), the pIC50 is 7.34.
With `C[C@@H](NC(=O)c1ccc(NNC(=O)CCCCCNC(=O)CN2CCN3CCN4CCN(CC2)CC(=O)[O][Ga]([O]C(=O)C3)[O]C(=O)C4)cc1)C(=O)N1CCC[C@H]1B(O)O` [Compound 6486GA], the pIC50 in assay [2] is below 4.00; in assay [1] (setting [4]), 7.09; in assay [3] (setting [5]) it was 5.33.
In the same order, the values of `C[C@@H](NC(=O)c1ccc(NNC(=O)CCCNC(=O)CN2CCN3CCN4CCN(CC2)CC(=O)[O][Ga]([O]C(=O)C3)[O]C(=O)C4)cc1)C(=O)N1CCC[C@H]1B(O)O` [Compound 6489GA] are below 4.00, 7.41 and 5.47.
Take `C[C@@H](NC(=O)[C@H](CO)NC(=O)CN1CCN(CC(=O)O)CCN(CC(=O)O)CCN(CC(=O)O)CC1)C(=O)N1CCC[C@H]1B(O)O` [Compound 6509, DOTA-Ser-D-Ala-boroPro]: the negative-log IC50 (pIC50) in assay [1] (setting [4]) is 6.73.
Still for that read-out and setting: under `C[C@H](NC(=O)CN1CCN2CCN3CCN(CC1)CC(=O)[O][Gd]([O]C(=O)C2)[O]C(=O)C3)C(=O)N[C@H](C)C(=O)N1CCC[C@H]1B(O)O` [Compound 6511Gd, DOTA[(Gd(III)]-Ala-D-Ala-boroPro] stands 6.37.
For the compound `CC(C)[C@H](NC(=O)CNC(=O)CNC(=O)CN1CCN2CCN3CCN(CC1)CC(=O)[O][Ga]([O]C(=O)C2)[O]C(=O)C3)C(=O)N[C@H](C)C(=O)N1CCC[C@H]1B(O)O` [Compound 6522GA-02, DOTA(Ga)-Gly-Gly-Val-D-alaboroPro] (HELM PEPTIDE1{[O=C1CN2CCN3CCN(CC(=O)[*:2])CCN(CC2)CC(=O)[O][Ga]([O]1)[O]C(=O)C3].G.G.V.[dA].[OB(O)[C@@H]1CCCN1[*:1]]}$$$$V2.0), the pIC50 in assay [2] was below 4.00; in assay [1] (setting [4]), 6.24; in assay [3] (setting [5]) it was 4.72.
On to `CC(C)[C@H](NC(=O)CNC(=O)CNC(=O)CN1CCN(CC(=O)O)CCN(CC(=O)O)CCN(CC(=O)O)CC1)C(=O)N[C@H](C)C(=O)N1CCC[C@H]1B(O)O` [Compound 6522L, DOTA-Gly-Gly-Val-alaboroPro(L-ala)] (HELM PEPTIDE1{[O=C(O)CN1CCN(CC(=O)O)CCN(CC(=O)[*:2])CCN(CC(=O)O)CC1].G.G.V.[dA].[OB(O)[C@@H]1CCCN1[*:1]]}$$$$V2.0), for which the values for the negative logarithm of the IC50 (pIC50) in assay [2], in assay [1] and in assay [3] (setting [5]) were 5.47, below 4.00 and 8.12, respectively.
With `CC(C)[C@H](NC(=O)CNC(=O)CNC(=O)CN1CCN(CC(=O)O)CCN(CC(=O)O)CCN(CC(=O)O)CC1)C(=O)N[C@H](C)C(=O)N1CCCC1B1OC(=O)CN(C)CC(=O)O1` (stereo partly drawn) [Compound 6522M, DOTA-Gly-Gly-Val-D-alaboroPro-MIDA] (HELM PEPTIDE1{[O=C(O)CN1CCN(CC(=O)O)CCN(CC(=O)[*:2])CCN(CC(=O)O)CC1].G.G.V.[dA].[CN1CC(=O)OB(C2CCCN2[*:1])OC(=O)C1]}$$$$V2.0), the negative-log IC50 (pIC50) in assay [1] (setting [4]) is 6.55.
The same measure, in the same setting: as for `C[C@@H](NC(=O)c1ccc(NC(=O)CCCCNC(=O)CN2CCN3CCN4CCN(CC2)CC(=O)[O][Lu]([O]C(=O)C3)[O]C(=O)C4)cc1)C(=O)N1CCC[C@H]1B(O)O` [Compound 6590LU], the figure is 9.40.
On to `C[C@@H](NC(=O)c1ccc(NNC(=O)CCCNC(=O)CN2CCN3CCN4CCN(CC2)CC(=O)[O][Lu]([O]C(=O)C3)[O]C(=O)C4)nc1)C(=O)N1CCC[C@H]1B(O)O` [Compound 6609LU], for which the pIC50 in assay [1] (setting [4]) is 9.00; in assay [3] (setting [5]), 7.22.
For `CC(C)[C@H](NC(=O)CNC(=O)CC[C@H](C(=O)O)N1CCN(CC(=O)O)CCN(CC(=O)O)CCN(CC(=O)O)CC1)C(=O)N[C@H](C)C(=O)N1CCC[C@H]1B(O)O` [Compound 6795D, (R)-DOTAGA-Gly-Val-D-ala-boroPro], the negative-log IC50 (pIC50) in assay [2] is below 4.00.
On the same count and under the same terms, as for `CC(C)[C@H](NC(=O)CNC(=O)CC[C@@H]1C(=O)[O][Lu]23[O]C(=O)CN4CCN(CCN1CCN(CC4)CC(=O)[O]2)CC(=O)[O]3)C(=O)N[C@H](C)C(=O)N1CCC[C@H]1B(O)O` [Compound 6795DLU, (R)-DOTAGA(Lu)-Gly-Val-Dala-boroPro], the figure is below 4.00.
Take `CC(C)[C@H](NC(=O)CNC(=O)CC[C@H]1C(=O)[O][Lu]23[O]C(=O)CN4CCN(CCN1CCN(CC4)CC(=O)[O]2)CC(=O)[O]3)C(=O)N[C@H](C)C(=O)N1CCC[C@H]1B(O)O` [Compound 6795LLU, (S)-DOTAGA-Gly-Val-Dala-boroPro (6795L-Lu Complex)]: the values for the pIC50 in assay [1] and in assay [3] were 7.70 and 5.19, respectively.
With `CC(C)[C@H](NC(=O)CNC(=O)CNC(=O)CNC(=O)CNC(=O)CN1CCN(CC(=O)O)CCN(CC(=O)O)CCN(CC(=O)O)CC1)C(=O)N[C@H](C)C(=O)N1CCC[C@H]1B(O)O` [Compound 6839, DOTA-(Gly)4-Val-D-ala-boroPro] (HELM PEPTIDE1{[O=C(O)CN1CCN(CC(=O)O)CCN(CC(=O)[*:2])CCN(CC(=O)O)CC1].G.G.G.G.V.[dA].[OB(O)[C@@H]1CCCN1[*:1]]}$$$$V2.0), the pIC50 in assay [1] (setting [4]) is 7.68.
With `C[C@@H](NC(=O)c1ccc(NNC(=O)CCCCCNC(=O)CN2CCN3CCN4CCN(CC2)CC(=O)[O][Lu]([O]C(=O)C3)[O]C(=O)C4)nc1)C(=O)N1CCC[C@H]1B(O)O` [Compound 6958LU], the figures for the negative logarithm of the IC50 (pIC50) in assay [1] (setting [4]) and in assay [3] (setting [5]) were 8.96 and 6.81, respectively.
Regarding “(R)-DOTAGA(Ga)-(Gly)3-Val-Dala-boroPro [Compound 6808DGA]”, the pIC50 in assay [1] (setting [4]) was 7.05.
